Reference: patent EP2669276A1 (Université de Strasbourg, priority 2012, dated 2013)
Where “and” joins values, the source holds several entries; their conditions need not be identical. Identical values can stand only once. Values belong to the compound of their own block, whether it stands above or below them.

How the values were obtained:
[1] = molecular target: T1, hNPFF2 (Homo sapiens, UniProt Q9Y5X5); assay: Receptor binding assay with [3H]-FFRFamide on CHO cell membranes expressing SF-hNPFFR2
T1 construct: The cDNA encoding the full-length human NPFFR1 and human NPFFR2; expressed in transfected cells
Description: (§1) The cDNA encoding the full-length human NPFFR1 and human NPFFR2 were subcloned into the pcDNA3 expression vector (Invitrogen, Cergy Pontoise, France) using standard molecular biology methods. A sequence encoding a signal sequence and a Flag epitope was fused to the 5' coding sequence of both hNPFFR1 and hNPFFR2 cDNA according to (Guan et al., 1992) resulting in a SF-hNPFFR1 and SF-hNPFFR2 constructs. These contructs were stably transfected into CHO cells.
(§2) Membranes from CHO cells stably expressing SF-hNPFFR1 or SF-hNPFFR2 were prepared as described (Becker et al., 1999). SF-hNPFFR1 or SF-hNPFFR2 membranes (10µg) were incubated for 30 min at 25 °C in a final volume of 0.5 ml containing 50 mM HEPES pH 7.4, 1 mM CaCl2, 1 mM MgCl2, 0.1% bovine serum albumin, 10 nM and 3 nM [^3H]-FFRFamide (CEA, Paris; specific activity, 13,6 Ci/mmol) for […], respectively and the ligands to be tested. Non-specific binding was determined in presence of 1 µM neuropeptide FF for SF-hNPFFR2 and 1 µM neuropeptide VF for SF -hNPFFR1. Typical total and nonspecific binding were 1200 and 200 dpm, respectively for SF-hNPFFR1 and SF-hNPFFR2. Incubation mixtures were rapidly filtered and washed with 50 mM HEPES pH 7.4, 1 mM CaCl2, 1 mM MgCl2, on 96 wells GF/B unifilter (Perkin Elmer). Unifilter plates where then dryied for 1hr at 65°C. Bound radioactivity was determined by scintillation counting with 30 µl of scintillation cocktail (O-scint, Perkin Elmer) per well on a Topcount scintillation apparatus (Perkin Elmer).

[2] = tested on: Fentanyl-induced hyperalgesia followed by carrageenan injection in rats; assay: Fentanyl-induced hyperalgesia followed by carrageenan injection in rats; assay type: in vivo; details: 0.5 mg/kg s.c. 30 min before fentanyl at D0, carrageenan at D13, P < 0.001 Newman-Keuls test
[3] = molecular target: T2, hNPFFR1 (Homo sapiens, UniProt Q9GZQ6); assay: cAMP measurement (forskolin-stimulated cAMP accumulation) in CHO cells expressing SF-hNPFFR1; assay type: cell-based
T2 construct: The cDNA encoding the full-length human NPFFR1 and human NPFFR2; expressed in transfected cells
Experimental: Functional coupling of SF-hNPFFR1 and SF-hNPFFR2 to adenylyl cyclase was assessed by measuring the inhibitory effects of agonist/antagonist and related compounds on forskolin-stimulated cAMP accumulation in CHO cells stably expressing both receptors as previously described (Gicquiaux et al., 2001) with minor modifications. Briefly, 80% confluent CHO cells expressing SF-hNPFFR1 or SF-hNPFFR2 were harvested and seeded in 96-well plates at an initial density of 10,000 cells per well. After 1-2 days of culture (90% confluency), cells were washed with 0.2 ml of PBS (in mM: 137 NaCl, 2.7 KCl, 0.9 CaCl2, 0.5 MgCl2, 6.5 Na2HPO4, 1.5 KH2PO4, pH 7.2), and then incubated at 37°C for 10 min with 0.2 ml assay buffer (in mM: 150 NaCl, 5 KCl, 2.5 CaCl2, 1.2 KH2PO4, 1.2 MgSO4, 25 NaHCO3, 10 HEPES, 10 mg/ml BSA, pH 7.4). […] The reaction was stopped by addition of 0.04 ml volume ice-cold 0.5 M HCl and cells were frozen (-80°C 1 hour) disrupted by sonication and suspensions were centrifuged at 2,000 × g for 15 min. The resulting supernatants were stored at -20°C until determination of cAMP by radioimmunoassay as described (Cailla et al., 1973). For antagonist evaluation, dose response curves of agonists (NPVF and NPFF for hNPFFR1 and hNPFFR2, respectively) were performed in the presence of fixed concentrations of antagonist. […]

[4] = tested on: Fentanyl-induced hyperalgesia in rats; assay: Fentanyl-induced hyperalgesia in rats (paw pressure vocalization test); assay type: in vivo; details: for fentanyl-induced hyperalgesia / development of fentanyl-induced hyperalgesia: rats, 30 min before fentanyl; for fentanyl-induced hyperalgesia: P < 0.001, Newman-Keuls test
[5] = molecular target: T2, hNPFFR1; assay: [35S]GTPγS binding measurement on SF-hNPFFR1 membranes; assay type: biochemical; details: tested alone, up to 50 µM
Experimental: For [^35S]GTPγS binding experiments, SF-hNPFFR1 or SF-hNPFFR2 membrane proteins (5 µg) were incubated for 45 min at 30 °C in a final volume of 0.5 ml containing 20 mM HEPES pH 7.4, 100 mM NaCl, 3 mM MgCl2, 10 µM GDP, 10 µg/ml Saponin, 0.1 nM [^35S]GTPγS and ligands. Non-specific binding was determined in the presence of 10 µM GTPγS. Incubation mixtures were rapidly filtered and washed with 10 mM HEPES pH 7.4, 0,5 M NaCl, 1,5 mM MgCl2, on 96 wells GF/B unifilter (Perkin Elmer). Unifilter plates where then dryied for 1hr at 65°C. Bound radioactivity was determined by scintillation counting with 30 µl of scintillation cocktail (O-scint, Perkin Elmer) per well on a Topcount scintillation apparatus (Perkin Elmer).

[6] = molecular target: T3, hNPFF1 (Homo sapiens, UniProt Q9GZQ6); assay: Receptor binding assay with [3H]-FFRFamide on CHO cell membranes expressing SF-hNPFFR1
T3 construct: The cDNA encoding the full-length human NPFFR1 and human NPFFR2; expressed in transfected cells
Description: as §1, §2

[7] = molecular target: T2, hNPFFR1; assay: cAMP measurement (forskolin-stimulated cAMP accumulation) in CHO cells expressing SF-hNPFFR1; assay type: cell-based; details: antagonism of NPVF, Schild analysis; S.E.M. below 15%
Experimental: (§3) Functional coupling of SF-hNPFFR1 and SF-hNPFFR2 to adenylyl cyclase was assessed by measuring the inhibitory effects of agonist/antagonist and related compounds on forskolin-stimulated cAMP accumulation in CHO cells stably expressing both receptors as previously described (Gicquiaux et al., 2001) with minor modifications. Briefly, 80% confluent CHO cells expressing SF-hNPFFR1 or SF-hNPFFR2 were harvested and seeded in 96-well plates at an initial density of 10,000 cells per well. After 1-2 days of culture (90% confluency), cells were washed with 0.2 ml of PBS (in mM: 137 NaCl, 2.7 KCl, 0.9 CaCl2, 0.5 MgCl2, 6.5 Na2HPO4, 1.5 KH2PO4, pH 7.2), and then incubated at 37°C for 10 min with 0.2 ml assay buffer (in mM: 150 NaCl, 5 KCl, 2.5 CaCl2, 1.2 KH2PO4, 1.2 MgSO4, 25 NaHCO3, 10 HEPES, 10 mg/ml BSA, pH 7.4). After removal of buffer, 0.06 ml of fresh buffer containing 1 mM 3-isobutyl-1-methyl-xanthine (IBMX) was added for 10 min and cells were exposed to 10 µM forskolin without and with compounds (10^-10-10^-5 M) for 10 min at 37 °C in a final volume of 0.1 ml. The reaction was stopped by addition of 0.04 ml volume ice-cold 0.5 M HCl and cells were frozen (-80°C 1 hour) disrupted by sonication and suspensions were centrifuged at 2,000 × g for 15 min. The resulting supernatants were stored at -20°C until determination of cAMP by radioimmunoassay as described (Cailla et al., 1973). […]

[8] = molecular target: T4, hNPFFR2 (Homo sapiens, UniProt Q9Y5X5); assay: cAMP measurement (forskolin-stimulated cAMP accumulation) in CHO cells expressing SF-hNPFFR2; assay type: cell-based; details: antagonism of NPFF, Schild analysis; S.E.M. below 15%
T4 construct: The cDNA encoding the full-length human NPFFR1 and human NPFFR2; expressed in transfected cells
Experimental: as §3

[9] = tested on: hyperalgesia induced by administration of opiate analgesics; details: rat, in vivo; cited from earlier work

T1 sequence (Q9Y5X5 whole entry): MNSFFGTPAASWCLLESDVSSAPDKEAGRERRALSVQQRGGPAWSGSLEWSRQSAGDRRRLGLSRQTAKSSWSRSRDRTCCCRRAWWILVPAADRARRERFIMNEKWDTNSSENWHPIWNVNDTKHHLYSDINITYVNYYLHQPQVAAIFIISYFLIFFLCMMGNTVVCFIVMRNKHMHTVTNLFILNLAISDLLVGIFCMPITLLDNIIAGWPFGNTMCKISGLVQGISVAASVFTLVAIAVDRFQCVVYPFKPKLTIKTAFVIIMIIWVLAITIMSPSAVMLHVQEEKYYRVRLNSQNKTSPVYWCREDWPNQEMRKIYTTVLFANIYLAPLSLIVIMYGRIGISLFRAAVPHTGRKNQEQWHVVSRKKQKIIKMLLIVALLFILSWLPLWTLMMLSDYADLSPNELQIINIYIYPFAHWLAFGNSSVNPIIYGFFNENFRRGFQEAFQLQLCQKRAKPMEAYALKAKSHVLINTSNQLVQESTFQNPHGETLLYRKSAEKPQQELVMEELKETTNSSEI
T2 sequence (Q9GZQ6 whole entry): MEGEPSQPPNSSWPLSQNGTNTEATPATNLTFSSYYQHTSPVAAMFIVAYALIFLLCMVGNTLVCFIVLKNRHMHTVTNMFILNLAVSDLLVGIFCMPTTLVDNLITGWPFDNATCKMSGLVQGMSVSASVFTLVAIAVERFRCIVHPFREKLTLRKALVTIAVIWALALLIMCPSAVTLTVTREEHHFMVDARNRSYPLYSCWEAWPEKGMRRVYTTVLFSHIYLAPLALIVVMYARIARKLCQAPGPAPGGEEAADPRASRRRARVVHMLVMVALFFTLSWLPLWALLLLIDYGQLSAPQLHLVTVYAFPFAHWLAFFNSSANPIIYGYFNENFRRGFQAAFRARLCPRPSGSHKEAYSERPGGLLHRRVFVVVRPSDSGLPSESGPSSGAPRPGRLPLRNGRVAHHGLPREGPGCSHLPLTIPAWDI
T3 sequence (Q9GZQ6 whole entry): as above
T4 sequence (Q9Y5X5 whole entry): as the sequence (Q9Y5X5 whole entry) above

Ki ([1]; [3H]-FFRF-NH2 radioligand, unit µM printed with the value, read-out: Ki NPFF2): > 13 µM | affinity for NPFFR2 ([1]; in words): very low affinity | Kb ([3]; read-out: pA2 value for hNPFFR1 (converted)): 977 nM | decrease of forskolin-stimulated cAMP accumulation ([3]; tested alone, up to 50 µM): did not decrease | stimulation of the binding of [35S]GTPgS [5]: did not stimulate | Ki ([6]; [3H]-FFRF-NH2 radioligand, mean of at least two experiments, read-out: Ki NPFF1): 60 nM and 65 nM | affinity for NPFFR1 ([6]; in words): good affinity
Compound: O=C(N[C@@H](CCCN1CCCCC1)C(=O)NCCc1ccccc1)c1ccccc1-c1ccccc1 [Compound 26, (2S)-N-(2-phenylethyl)-2-[(2-phenylphenyl)formamido]-5-(piperidin-1-yl)pentanamide]
increase in inflammatory hyperalgesia induced by prior fentanyl injection [2]: completely prevented | in vivo activity after oral administration ([4]; oral, low dose of 1 mg/kg): highly satisfactory in vivo activity | hyperalgesia induced by administration of fentanyl ([4]; rat, single 0.5 mg/kg dose, i.p.): blocks | fentanyl-induced hyperalgesia ([4]; 0.5 mg/kg subcutaneously): completely abolished | fentanyl-induced hyperalgesia ([4]; 3 mg/kg orally): completely abolished | development of fentanyl-induced hyperalgesia ([4]; orally 0.3, 1 and 3 mg/kg): dose-dependently prevented | development of fentanyl-induced hyperalgesia ([4]; subcutaneously 0.05, 0.1 and 0.5 mg/kg): dose-dependently prevented

inhibition at 0.7 µM ([1]; 0.7 µM (footnote e)): 4% | inhibition at 7 µM ([1]; 7 µM (footnote d)): 39% | inhibition at 0.7 µM ([6]; 0.7 µM (footnote e)): 35% | inhibition at 7 µM ([6]; 7 µM (footnote d)): 59%
Compound: O=C(CCCNC(=O)c1ccccc1)N[C@@H](CCCN1CCC(Cc2ccccc2)CC1)C(=O)NCCc1ccccc1 [Compound 46, (2S)-5-(4-benzylpiperidin-1-yl)-N-(2-phenylethyl)-2-[4-(phenylformamido)butanamido]pentanamide]

Compound: N^α-adamantan-1-yl-L-Arg-L-Phe-NH2 acetate [RF9]
pA2 value for hNPFFR1 [7]: 6.47 | pA2 for hNPFFR2 [8]: 6,65 | activity on hyperalgesia induced by repeated administration of opiate analgesics [9]: antihyperalgesic activity
